Results as given in PMC9944867, “Mechanistic in vitro studies indicate that the clinical drug–drug interactions between protease inhibitors and rosuvastatin are driven by inhibition of intestinal BCRP and hepatic OATP1B1 with minimal contribution from OATP1B3, NTCP and OAT3” (Pharmacology Research & Perspectives, 2023).
“And” between values parts separate entries of the source, which are not always exact repeats. Identical values can stand only once. “Also recorded” adds a separate entry of the source. Counter-ions that a name gives are not always drawn. Like-named read-outs stand apart in the source and are kept apart here. Marks after values point to notes of the source that are not given here. One block for each molecule: values may come before it.

Assays:
human OATP1B1 (SLCO1B1) = biological target: T1, human OATP1B1 (SLCO1B1) (Homo sapiens, UniProt Q9Y6L6); assay: OATP1B1 inhibition in transporter-expressing HEK293 cells, [3H]-estradiol 17β-D-glucuronide uptake (IC50 determination); settings: OATP1B1-mediated transport of [3H]-estradiol 17β-D-glucuronide (0.02 μM), HEK293
T1 sequence (Q9Y6L6 1-691): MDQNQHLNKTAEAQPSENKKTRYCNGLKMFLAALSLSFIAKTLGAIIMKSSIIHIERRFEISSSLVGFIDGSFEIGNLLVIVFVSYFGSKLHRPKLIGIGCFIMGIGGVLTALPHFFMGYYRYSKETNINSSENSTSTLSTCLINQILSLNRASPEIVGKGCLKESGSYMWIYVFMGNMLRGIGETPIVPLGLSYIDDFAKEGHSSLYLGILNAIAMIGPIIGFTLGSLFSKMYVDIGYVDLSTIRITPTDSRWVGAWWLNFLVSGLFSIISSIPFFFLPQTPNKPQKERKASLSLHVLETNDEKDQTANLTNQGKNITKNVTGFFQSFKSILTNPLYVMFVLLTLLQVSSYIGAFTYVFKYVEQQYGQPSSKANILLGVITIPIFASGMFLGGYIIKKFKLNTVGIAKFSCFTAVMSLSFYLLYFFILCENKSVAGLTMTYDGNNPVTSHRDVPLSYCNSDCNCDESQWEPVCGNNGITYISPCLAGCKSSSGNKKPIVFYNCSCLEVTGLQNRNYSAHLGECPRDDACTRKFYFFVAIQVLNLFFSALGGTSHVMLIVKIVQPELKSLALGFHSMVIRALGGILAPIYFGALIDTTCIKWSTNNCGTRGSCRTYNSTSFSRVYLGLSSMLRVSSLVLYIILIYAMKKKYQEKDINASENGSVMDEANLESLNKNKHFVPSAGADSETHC
Method: (§1) OATP1B1, OATP1B3, NTCP and vector control cell lines were cultured and subsequent transporter assays conducted as described above using the same transporter‐specific probe substrates and incubation times. For OATP1B1, the probe substrate was [^3H]‐estradiol 17β‐D‐glucuronide (0.02 μM) incubated for 2 min, with rifamycin SV (100 μM) as positive control inhibitor. For IC50 determinations, the only difference to the method performed above was that the 15‐min pre‐incubation step contained a range of six concentrations of protease inhibitor drug, and subsequent incubations were conducted with the same six concentration levels of drug rather than with a single concentration.

[1] = read-out: [Cmax] mean steady-state maximum plasma concentration, total drug, cited from earlier work
human NTCP (SLC10A1) = biological target: T2, human NTCP (SLC10A1) (Homo sapiens, UniProt Q14973); assay: NTCP single concentration inhibition screen in HEK293 cells; format: cell-based; settings: ≥10x [Iin max u]: atazanavir 50 μM, darunavir 15 μM, lopinavir 5 μM, ritonavir 0.3 μM; [3H]-taurocholic acid 1 μM
T2 construct: host or cells: HEK293 TransportoCells
T2 sequence (Q14973 1-349): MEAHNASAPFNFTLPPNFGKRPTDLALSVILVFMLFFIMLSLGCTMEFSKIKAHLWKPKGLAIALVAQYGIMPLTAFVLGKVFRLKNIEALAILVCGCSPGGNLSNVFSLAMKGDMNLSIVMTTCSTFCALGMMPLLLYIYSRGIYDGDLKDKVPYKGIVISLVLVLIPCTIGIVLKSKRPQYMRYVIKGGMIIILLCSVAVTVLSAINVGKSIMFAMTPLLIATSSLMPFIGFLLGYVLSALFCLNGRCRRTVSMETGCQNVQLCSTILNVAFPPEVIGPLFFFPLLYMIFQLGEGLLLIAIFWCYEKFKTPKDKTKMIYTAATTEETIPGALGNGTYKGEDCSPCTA

BCRP [2] = biological target: T3, BCRP (Homo sapiens, UniProt Q9UNQ0); assay: Caco-2 unidirectional (B-A) BCRP inhibition assay, [3H]-estrone 3-sulfate transport (IC50 determination)
T3 sequence (Q9UNQ0 1-655): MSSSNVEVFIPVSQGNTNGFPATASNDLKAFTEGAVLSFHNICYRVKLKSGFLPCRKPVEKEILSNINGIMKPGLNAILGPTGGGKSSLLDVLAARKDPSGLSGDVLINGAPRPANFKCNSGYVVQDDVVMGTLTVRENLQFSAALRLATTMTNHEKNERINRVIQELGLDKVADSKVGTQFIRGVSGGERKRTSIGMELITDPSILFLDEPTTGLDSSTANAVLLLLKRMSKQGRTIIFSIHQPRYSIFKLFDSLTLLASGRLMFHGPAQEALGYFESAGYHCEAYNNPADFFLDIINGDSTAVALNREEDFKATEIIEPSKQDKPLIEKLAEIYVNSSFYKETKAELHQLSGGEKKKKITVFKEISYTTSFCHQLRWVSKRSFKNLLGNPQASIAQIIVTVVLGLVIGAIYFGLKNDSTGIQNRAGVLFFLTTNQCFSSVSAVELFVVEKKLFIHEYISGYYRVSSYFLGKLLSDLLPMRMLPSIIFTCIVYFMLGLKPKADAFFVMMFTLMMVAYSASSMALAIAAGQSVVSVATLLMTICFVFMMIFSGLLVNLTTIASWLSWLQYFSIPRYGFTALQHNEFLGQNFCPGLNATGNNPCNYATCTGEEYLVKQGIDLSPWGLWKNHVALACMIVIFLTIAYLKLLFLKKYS
Method: The methodology used was adapted from the previously validated Caco‐2 unidirectional (basolateral to apical; B‐A) BCRP inhibition assay.[13]
The BCRP inhibition experiments were performed between day 18 to 22 post‐seeding. […] After pre‐incubation, transport buffer was removed and the appropriate donor solutions were added to the basolateral donor compartment. […] Receiver solutions (final DMSO concentration of ≤1 % v/v) in transport buffer containing either the corresponding concentration of test inhibitor or DMSO (vehicle control), and the fluorescent cell monolayer integrity marker lucifer yellow (100 μM), were added to the apical compartments (total volume = 90 μL). Incubations were conducted in triplicate wells per assay condition in a heated incubator at 37°C for 90 min. Following the incubation, the amount (pmol) of [^3H]‐estrone 3‐sulfate appearing in the receiver compartment was determined by sampling (50 μL) into a white walled clear bottomed multiwell plate, to which scintillation fluid (200 μL) was added, and then samples counted on a Microbeta2 liquid scintillation counter (PerkinElmer). The quantified amount (derived from disintegrations per minute; DPM) of [^3H]‐estrone 3‐sulfate was subsequently converted to concentration (pmol/mL) and used to calculate apparent permeability (Papp), as described previously.[18]

[3] = Pharmacokinetic parameters of protease inhibitors in clinical interaction studies with rosuvastatin; settings: calculated, clinical dose of Table 5
[4] = human, in vivo
OAT3 [5] = system: OAT3; set-up: method as in Yoshida et al.[32]; settings: up to 10 μM; ref Yoshida et al.[32]; cited from earlier work
BCRP [6] = system: BCRP; set-up: method as in PMID 21612343; settings: ref [17]; cited from earlier work
OAT3 [7] = biological target: T4, OAT3 (Homo sapiens, UniProt Q8TCC7); assay: OAT3 single concentration inhibition screen in HEK293 cells; format: cell-based; settings: human, HEK293 cells expressing OAT3 (with vector control cells), pH 7.4, probe [3H]-estrone 3-sulfate (1 μM); probenecid 300 μM; single concentration screens; read-out: Inhibition of OAT3 by positive control (mean), screen
T4 construct: host or cells: HEK293 TransportoCells
T4 sequence (Q8TCC7 1-542): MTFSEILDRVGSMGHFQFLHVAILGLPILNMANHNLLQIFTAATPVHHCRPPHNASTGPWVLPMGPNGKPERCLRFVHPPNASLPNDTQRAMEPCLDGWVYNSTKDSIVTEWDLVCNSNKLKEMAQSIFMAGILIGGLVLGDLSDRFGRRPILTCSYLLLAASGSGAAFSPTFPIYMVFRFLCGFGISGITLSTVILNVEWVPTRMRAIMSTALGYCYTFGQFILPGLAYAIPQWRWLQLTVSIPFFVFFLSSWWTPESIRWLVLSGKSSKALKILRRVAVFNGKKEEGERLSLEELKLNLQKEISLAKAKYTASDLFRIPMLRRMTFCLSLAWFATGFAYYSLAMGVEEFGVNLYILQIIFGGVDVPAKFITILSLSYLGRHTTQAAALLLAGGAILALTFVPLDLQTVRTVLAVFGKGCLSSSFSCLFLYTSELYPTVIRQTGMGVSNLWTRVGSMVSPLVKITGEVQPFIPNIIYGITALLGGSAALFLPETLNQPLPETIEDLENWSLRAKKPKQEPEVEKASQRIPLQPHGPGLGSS

OATP1B1 = biological target: T5, OATP1B1 (Homo sapiens, UniProt Q9Y6L6); assay: OATP1B1 inhibition in transporter-expressing HEK293 cells, [3H]-estradiol 17β-D-glucuronide uptake (IC50 determination); settings: human, HEK293 cells expressing OATP1B1 (with vector control cells), pH 7.4, probe [3H]-estradiol 17β-D-glucuronide (0.02 μM)
T5 sequence (Q9Y6L6 1-691): T1 sequence (Q9Y6L6 1-691)
Method: as §1

human OAT3 (SLC22A8) = biological target: T6, human OAT3 (SLC22A8) (Homo sapiens, UniProt Q8TCC7); assay: OAT3 single concentration inhibition screen in HEK293 cells; format: cell-based; settings: ≥10x unbound [Cmax]: atazanavir 15 μM, darunavir 10 μM, lopinavir 3 μM, ritonavir 0.1 μM; probe 1 μM
T6 construct: host or cells: HEK293 TransportoCells
T6 sequence (Q8TCC7 1-542): T4 sequence (Q8TCC7 1-542)

[8] = cited from earlier work

Compound: CC(C)CN(C[C@@H](O)[C@H](Cc1ccccc1)NC(=O)O[C@H]1CO[C@H]2OCC[C@H]21)S(=O)(=O)c1ccc(N)cc1 [darunavir]
IC50 (human OATP1B1 (SLCO1B1); IC50, determined values from different occasions (OATP1B1), single occasion): 12.4 µM and 7.89 µM and 8.29 µM
IC50 (human OATP1B1 (SLCO1B1); IC50 mean (OATP1B1), mean (±SD) of three occasions): 9.53 µM
Cmax ([1]; 600 mg, ref Kakuda et al.[36]): 10.6 µM
Inhibition of NTCP-mediated probe substrate transport, single concentration screen (human NTCP (SLC10A1)): neither darunavir nor ritonavir when tested at a single concentration greater than or equal to ten times their [Iin max u] produced inhibition; also recorded: not an inhibitor
IC50 (BCRP [2]): 126 µM and 154 µM and 148 µM
IC50 (BCRP [2]; IC50 mean (BCRP), BCRP-mediated B-A transport of [3H]-estrone 3-sulfate (1 μM), Caco-2, mean (±SD) of occasions, IC50 equates to Ki): 143 µM
[Iin max u] unbound maximum hepatic inlet concentration [3]: 1.21 µM
[Ig] maximal enterocyte concentration [4]: 73.0 ^b μM
[Iin max] maximum hepatic inlet concentration [4]: 24.2 ^b μM
Inhibition of OAT3, published (OAT3 [5]): no inhibition

Compound: C[C@]12CC[C@@H]3c4ccc(OS(=O)(=O)O)cc4CC[C@H]3[C@@H]1CCC2=O [estrone 3‐sulfate, Estrone 3‐sulfate sodium salt]
Km (BCRP [6]): 7.4 µM

inhibition at 3 min, 300 μM (OAT3 [7]): 90.6%
Compound: CCCN(CCC)S(=O)(=O)c1ccc(C(=O)O)cc1 [probenecid]

inhibition at 2 min, 100 μM (OATP1B1): 96.5 ± 3.2%
Compound: CO[C@H]1/C=C/O[C@@]2(C)Oc3c(C)c(O)c4c(O)c(cc(O)c4c3C2=O)NC(=O)/C(C)=C\C=C\[C@H](C)[C@H](O)[C@@H](C)[C@@H](O)[C@@H](C)[C@H](OC(C)=O)[C@@H]1C [rifamycin SV, rifamycin SV sodium salt]

[Ig] maximal enterocyte concentration ([3]; (FaFg × ka × dose)/Qent): 1.39 ^f μM
[Iin max u] unbound maximum hepatic inlet concentration [3]: 0.0131 µM
[Iin max] maximum hepatic inlet concentration [3]: 1.19 ^f μM
Compound: CC(C)c1nc(CN(C)C(=O)N[C@H](C(=O)N[C@@H](Cc2ccccc2)C[C@H](O)[C@H](Cc2ccccc2)NC(=O)OCc2cncs2)C(C)C)cs1 [ritonavir]
Cmax ([1]; clinical dose of Table 5, ref Elsby et al.[1]): 0.93 µM
Inhibition of OAT3-mediated [3H]-estrone 3-sulfate transport, single concentration screen (human OAT3 (SLC22A8)): neither atazanavir, darunavir, lopinavir nor ritonavir inhibited OAT3 transport

Compound: CC(C)c1nc(N(C)S(C)(=O)=O)nc(-c2ccc(F)cc2)c1/C=C/[C@@H](O)C[C@@H](O)CC(=O)O [rosuvastatin]
OAT3 ƒe ([8]; active renal secretion, ref [1]): 0.25
OATP1B1 ƒe ([8]; hepatic uptake, ref [1]): 0.38
fraction absorbed ([8]; intestinal BCRP efflux as barrier to absorption, ref [1]): 0.5
BCRP ƒe ([8]; intestinal BCRP efflux, ref [1]): 0.5
NTCP ƒe ([8]; ref [13]): 0.21
OATP1B3 ƒe ([8]; ref [13]): 0.11
overall hepatic elimination ƒe ([8]; ref [13]): 0.7
